Experiment [1] relates to Hep-3B cells. Kind of experiment: Cellular assay: erythropoietin secretion in Hep-3B cells. The format is cell-based, human. The settings on record: Homo sapiens, Hep3B, 100 μM compound, 24 hours, percent of EPO secretion relative to assay control compound 7-[(4-Chloro-phenyl)-(5-methyl-isoxazol-3-ylamino)-methyl]-quinolin-8-ol, read-out: Cellular % EPO Stimulation. An outline of the steps:
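Hep-3B cells in DMEM with 10% FBS, treated 24 h after plating with compounds at 100 μM final for a further 24 h. Secreted EPO in supernatant measured by MSD electrochemiluminescence sandwich immunoassay with anti-EPO detection antibody.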

In experiment [2] the target is T1, human PHD2 (PHD2181-417) (Homo sapiens, UniProt Q9GZT9).
T1 construct: Smt (SUMO) tag (cleaved yes); made in house; host or cells: E. coli BL21 (pBAD vector)
T1 sequence (Q9GZT9 181-417): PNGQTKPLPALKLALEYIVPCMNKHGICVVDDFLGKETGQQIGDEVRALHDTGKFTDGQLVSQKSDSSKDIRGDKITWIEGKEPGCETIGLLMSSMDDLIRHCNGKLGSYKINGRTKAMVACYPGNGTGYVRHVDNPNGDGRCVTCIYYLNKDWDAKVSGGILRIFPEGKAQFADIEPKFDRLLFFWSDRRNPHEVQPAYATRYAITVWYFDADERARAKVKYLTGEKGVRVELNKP
The experiment in a line: PHD enzymatic assay ([14C]-succinic acid production). It is filed as biochemical. The settings on record: PHD2181-417, HIF-1α peptide 10 μM, average of results; for IC50: read-out: Enzyme pIC50 (converted). The essentials: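 Activity measured as [14C]-succinic acid formed from [5-14C]-2-oxoglutarate over 10 minutes, with peptide substrate at 10 μM, in Tris-HCl pH 7.5 buffer containing catalase, DTT and ascorbate. Unreacted oxoglutarate removed by DNP derivatisation; supernatant beta-counted.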

Take `Cc1ccccc1-c1ccc2nc(-n3cc(C(=O)O)cn3)[nH]c(=O)c2c1` [Example 69, 1-(4-Oxo-6-o-tolyl-3,4-dihydro-quinazolin-2-yl)-1H-pyrazole-4-carboxylic acid]: the Emax at 100 µM in experiment [1] is 57%. In addition, the “Enzyme pIC50” value in experiment [2] worked out at 8.1.
For the compound `O=C(O)c1cnn(-c2nc3ccc(-c4cccc(-c5ccccc5)c4)cc3c(=O)[nH]2)c1` [Example 70, 1-(6-Biphenyl-3-yl-4-oxo-3,4-dihydro-quinazolin-2-yl)-1H-pyrazole-4-carboxylic acid], in experiment [1], the Emax at 100 µM came out at 41%. Moreover, the IC50 in experiment [2] was 31.6 nM.
For `COc1ccc(S(=O)(=O)c2cc3c(=O)[nH]c(-n4cc(C(=O)O)cn4)nc3cc2Cl)cc1OC` [Example 71, 1-[7-Chloro-6-(3,4-dimethoxy-benzenesulfonyl)-4-oxo-3,4-dihydro-quinazolin-2-yl]-1H-pyrazole-4-carboxylic acid], in that order: 16% and 15.8 nM.
For `CC(C)(C)c1ccc(S(=O)(=O)c2cc3c(=O)[nH]c(-n4cc(C(=O)O)cn4)nc3cc2Cl)cc1` [Example 72, 1-[6-(4-tert-Butyl-benzenesulfonyl)-7-chloro-4-oxo-3,4-dihydro-quinazolin-2-yl]-1H-pyrazole-4-carboxylic acid], in that order: 22% and 50.1 nM.
For `O=C(O)c1cnn(-c2nc3ccc(COc4ccccc4)cc3c(=O)[nH]2)c1` [Example 74, 1-(4-Oxo-6-phenoxymethyl-3,4-dihydro-quinazolin-2-yl)-1H-pyrazole-4-carboxylic acid], in that order: 35% and 31.6 nM.
Turning to `Cc1cccc(C)c1OCc1ccc2nc(-n3cc(C(=O)O)cn3)[nH]c(=O)c2c1` [Example 75, 1-[6-(2,6-Dimethyl-phenoxymethyl)-4-oxo-3,4-dihydro-quinazolin-2-yl]-1H-pyrazole-4-carboxylic acid], the Emax at 100 µM in experiment [1] was 20%. Also, the IC50 in experiment [2] was 20 nM.
For `C#Cc1ccc2nc(-n3cc(C(=O)O)cn3)[nH]c(=O)c2c1` [Example 76, 1-(6-Ethynyl-4-oxo-3,4-dihydro-quinazolin-2-yl)-1H-pyrazole-4-carboxylic acid], in that order: 16% and 31.6 nM.
With `C=C(Cl)c1ccc2nc(-n3cc(C(=O)O)cn3)[nH]c(=O)c2c1` [Example 77, 1-[6-(1-Chloro-vinyl)-4-oxo-3,4-dihydro-quinazolin-2-yl]-1H-pyrazole-4-carboxylic acid], in experiment [1], the Emax at 100 µM came out at 27%. For the same compound, the IC50 in experiment [2] is 25.1 nM.
In the case of `O=C(O)c1cnn(-c2nc3cc(Sc4ccccc4)ccc3c(=O)[nH]2)c1` [Example 78, 1-(4-Oxo-7-phenylsulfanyl-3,4-dihydro-quinazolin-2-yl)-1H-pyrazole-4-carboxylic acid], the Emax at 100 µM in experiment [1] was 5%. Further, the IC50 in experiment [2] was 39.8 nM.
For `O=C(O)c1cnn(-c2nc3cc(Sc4ccc(Cl)cc4)ccc3c(=O)[nH]2)c1` [Example 79, 1-[7-(4-Chloro-phenylsulfanyl)-4-oxo-3,4-dihydro-quinazolin-2-yl]-1H-pyrazole-4-carboxylic acid], in that order: 6% and 39.8 nM.
For `O=C(O)c1cnn(-c2nc3cc(Sc4ccccc4Cl)ccc3c(=O)[nH]2)c1` [Example 80, 1-[7-(2-Chloro-phenylsulfanyl)-4-oxo-3,4-dihydro-quinazolin-2-yl]-1H-pyrazole-4-carboxylic acid], in that order: 5% and 31.6 nM.
Turning to `O=C(O)c1cnn(-c2nc3cc(S(=O)(=O)c4ccccc4)ccc3c(=O)[nH]2)c1` [Example 81, 1-(7-Benzenesulfonyl-4-oxo-3,4-dihydro-quinazolin-2-yl)-1H-pyrazole-4-carboxylic acid], in experiment [1], the Emax at 100 µM was 26%. Also, the IC50 in experiment [2] was 79.4 nM.
The like results for `O=C(O)c1cnn(-c2nc3cc(S(=O)(=O)c4ccc(Cl)cc4)ccc3c(=O)[nH]2)c1` [Example 82, 1-[7-(4-Chloro-benzenesulfonyl)-4-oxo-3,4-dihydro-quinazolin-2-yl]-1H-pyrazole-4-carboxylic acid] were, in that order, 15% and 63.1 nM.
The like results for `O=C(O)c1cnn(-c2nc3cc(S(=O)(=O)c4ccccc4Cl)ccc3c(=O)[nH]2)c1` [Example 83, 1-[7-(2-Chloro-benzenesulfonyl)-4-oxo-3,4-dihydro-quinazolin-2-yl]-1H-pyrazole-4-carboxylic acid] were, in that order, 11% and 100 nM.
Consider `O=C(O)c1cnn(-c2nc3cc(Cl)c(N4CCc5ccccc5C4)cc3c(=O)[nH]2)c1` [Example 84, 1-[7-Chloro-6-(3,4-dihydro-1H-isoquinolin-2-yl)-4-oxo-3,4-dihydro-quinazolin-2-yl]-1H-pyrazole-4-carboxylic acid], for which the Emax at 100 µM in experiment [1] came out at 101%. Also, in experiment [2], the IC50 is 20 nM.
`O=C(O)c1cnn(-c2nc3cc(Cl)c(N4CCc5ccc(Br)cc5C4)cc3c(=O)[nH]2)c1` [Example 85, 1-[6-(7-Bromo-3,4-dihydro-1H-isoquinolin-2-yl)-7-chloro-4-oxo-3,4-dihydro-quinazolin-2-yl]-1H-pyrazole-4-carboxylic acid]: the Emax at 100 µM in experiment [1] came to 49%. Also, the IC50 in experiment [2] was 25.1 nM.
For `O=C(O)c1cnn(-c2nc3cc(F)c(Oc4cc(Cl)ccc4Cl)cc3c(=O)[nH]2)c1` [Example 87, 1-[6-(2,5-dichloro-phenoxy)-7-fluoro-4-oxo-3,4-dihydro-quinazolin-2-yl]-1H-pyrazole-4-carboxylic acid], in that order: 84% and 20 nM.
In the case of `Cc1ccc(Oc2cc3c(=O)[nH]c(-n4cc(C(=O)O)cn4)nc3cc2F)cc1C` [Example 88, 1-[6-(3,4-dimethyl-phenoxy)-7-fluoro-4-oxo-3,4-dihydro-quinazolin-2-yl]-1H-pyrazole-4-carboxylic acid], the Emax at 100 µM in experiment [1] came out at 95%. Besides, the IC50 in experiment [2] is 15.8 nM.
The like results for `Cc1cc(C)cc(Oc2cc3c(=O)[nH]c(-n4cc(C(=O)O)cn4)nc3cc2C)c1` [Example 89, 1-[6-(3,5-dimethyl-phenoxy)-7-methyl-4-oxo-3,4-dihydro-quinazolin-2-yl]-1H-pyrazole-4-carboxylic acid] were, in that order, 137% and 25.1 nM.
Turning to `Cc1cc2nc(-n3cc(C(=O)O)cn3)[nH]c(=O)c2cc1Oc1cc(Cl)ccc1Cl` [Example 90, 1-[6-(2,5-dichloro-phenoxy)-7-methyl-4-oxo-3,4-dihydro-quinazolin-2-yl]-1H-pyrazole-4-carboxylic acid], the Emax at 100 µM in experiment [1] was found to be 113%. Also, the IC50 in experiment [2] was 25.1 nM.
Turning to `Cc1cc2nc(-n3cc(C(=O)O)cn3)[nH]c(=O)c2cc1Oc1cccc(-c2ccccc2)c1` [Example 91, 1-[6-(biphenyl-3-yloxy)-7-methyl-4-oxo-3,4-dihydro-quinazolin-2-yl]-1H-pyrazole-4-carboxylic acid], the Emax at 100 µM in experiment [1] worked out at 75%. The IC50 in experiment [2] was 25.1 nM.
The like results for `Cc1ccc(Oc2cc3c(=O)[nH]c(-n4cc(C(=O)O)cn4)nc3cc2C)cc1C` [Example 92, 1-[6-(3,4-dimethyl-phenoxy)-7-methyl-4-oxo-3,4-dihydro-quinazolin-2-yl]-1H-pyrazole-4-carboxylic acid] were, in that order, 137% and 20 nM.
In the case of `Cc1cc2nc(-n3cc(C(=O)O)cn3)[nH]c(=O)c2cc1Oc1cccc(C(F)(F)F)c1` [Example 93, 1-[7-methyl-4-oxo-6-(3-trifluoromethyl-phenoxy)-3,4-dihydro-quinazolin-2-yl]-1H-pyrazole-4-carboxylic acid], in experiment [1], the Emax at 100 µM came out at 153%. For the same compound, the IC50 in experiment [2] is 20 nM.
The like results for `Cc1cc(C)cc(Oc2cc3c(=O)[nH]c(-n4cc(C(=O)O)cn4)nc3cc2F)c1` [Example 94, 1-[6-(3,5-dimethyl-phenoxy)-7-fluoro-4-oxo-3,4-dihydro-quinazolin-2-yl]-1 H-pyrazole-4-carboxylic acid] were, in that order, 90% and 20 nM.
The like results for `O=C(O)c1cnn(-c2nc3cc(F)c(Oc4cccc(C(F)(F)F)c4)cc3c(=O)[nH]2)c1` [Example 95, 1-[7-fluoro-4-oxo-6-(3-trifluoromethyl-phenoxy)-3,4-dihydro-quinazolin-2-yl]-1H-pyrazole-4-carboxylic acid] were, in that order, 61% and 20 nM.
For `O=C(O)c1cnn(-c2nc3ccc(Oc4cccc(C(F)(F)F)c4F)cc3c(=O)[nH]2)c1` [Example 96, 1-[6-(2-fluoro-3-trifluoromethyl-phenoxy)-4-oxo-3,4-dihydro-quinazolin-2-yl]-1H-pyrazole-4-carboxylic acid], in that order: 51% and 25.1 nM.
Turning to `O=C(O)c1cnn(-c2nc3ccc(Oc4cc(F)cc(C(F)(F)F)c4)cc3c(=O)[nH]2)c1` [Example 97, 1-[6-(3-fluoro-5-trifluoromethyl-phenoxy)-4-oxo-3,4-dihydro-quinazolin-2-yl]-1H-pyrazole-4-carboxylic acid], in experiment [1], the Emax at 100 µM stood at 37%. The IC50 in experiment [2] was 20 nM.
For `Cc1cc(C)cc(Oc2ccc3nc(-n4cc(C(=O)O)cn4)[nH]c(=O)c3c2)c1` [Example 98, 1-[6-(3,5-dimethyl-phenoxy)-4-oxo-3,4-dihydro-quinazolin-2-yl]-1H-pyrazole-4-carboxylic acid], in that order: 85% and 20 nM.

Source of the values: US8937078B2, “Quinazolinones as prolyl hydroxylase inhibitors” (Janssen Pharmaceutica NV, priority 2009, dated 2015).
